The subject of series [1] is Huh-7. Put plainly: Antiproliferative activity against human Huh-7 cells incubated for 3 days by CCK8 assay. In kind it is functional, cell-based. To be noted: Huh-7, 72 h. In general terms: Tetrazolium assays rely on reduction of a dye to a coloured formazan, in cell work by metabolically active cells.
Series [2] has as its system HEK293T. Put plainly: Inhibition of TEAD (unknown origin) expressed in HEK293T cells transfected with 8xGTIIC-luciferase at 10 uM by dual luciferase reporter assay relative to control. In kind it is cell-based. To be noted: Homo sapiens. On the technique in general: Reporter assays use an easily measured gene product as a stand-in for the process of interest.
Series [3] deals with Huh-7. Put plainly: Antitumor activity against human Huh-7 cells xenografted in NSG mouse assessed as tumor growth inhibition at 100 mg/kg, po administered every 3 days for 24 days and measured every 3 days. In kind it is functional. To be noted: Huh-7, 576 h, time 24 day, read-out: TGI. On the technique in general: A xenograft is tissue or cells of one species grown in another, often human tumour cells in immunodeficient mice.

Series [4] relates to Huh-7. The series can be described thus: Inhibition of TEAD transcription in human Huh-7 cells transfected with 8xGTIIC-luciferase assessed as downregulation of CTGF protein expression by Western blotting analysis. In kind it is cell-based. Particulars: dose 1.25-15 µM.
Series [5] concerns Huh-7. Put plainly: Inhibition of TEAD transcription in human Huh-7 cells transfected with 8xGTIIC-luciferase assessed as downregulation of CTGF mRNA expression incubated for 24 hrs by RT-PCR analysis. In kind it is cell-based. To be noted: dose 1.25-10 µM.
Series [6] in a line: (§1) Inhibition of TEAD transcription in human Huh-7 cells transfected with 8xGTIIC-luciferase by dual luciferase reporter assay. In kind it is cell-based.
The subject of series [7] is Huh-7. The description is as §1. In kind it is cell-based.
Series [8] in a line: Antiproliferative activity against mouse AML12 cells at 10 uM incubated for 3 days by CCK8 assay. To be noted: time 3 day. In kind it is toxicity, cell-based.

Each structure is given as a SMILES string.

The IC50 is the concentration that inhibits the measured activity by half. Read a low IC50 as inhibition by little substance. For orientation: inhibition means how much of the control response was suppressed. With `C=C(CN(C)C)C(=O)NCc1c[nH]c2cc(Cl)c(OCc3ccccc3)cc12`, the IC50 in series [1] came to 2 µM. Moreover, the inhibition in series [2] stood at 71.8%.

In turn, `O=C(CCl)c1c[nH]c2ccc(OCc3ccccc3)cc12` gave an IC50 in series [1] of 10.5 µM. The same compound gave an inhibition in series [2] of 20.5%.

`C=CC(=O)NCc1c[nH]c2cc(Cl)c(OCc3ccc4ccccc4c3)cc12` showed an IC50 in series [1] of 30.2 µM. The inhibition in series [2] amounted to 1.5%.

With `O=C(CCl)c1c[nH]c2cc(Cl)c(OCc3ccc(C(F)(F)F)cc3)cc12`, the IC50 in series [1] is 16.9 µM.

As to `COc1cc2[nH]cc(C(=O)CCl)c2cc1OCc1ccccc1`, it took 3.8 µM to reach half-maximal inhibition in series [1] (IC50). This compound also yielded an inhibition in series [2] of 53.7%.

`N#C/C(=C\c1c[nH]c2cc(Cl)c(OCC3CCC(F)(F)CC3)cc12)C(N)=O` showed an IC50 in series [1] of 5.3 µM. This compound also gave an inhibition in series [2] of 60.1%.

Take `O=C(CCl)c1c[nH]c2ccc(OCc3ccc4ccccc4c3)cc12`: the IC50 in series [1] is more than 20 µM. In series [2], this compound displayed an inhibition of 5.3%.

`O=C(CCl)NCc1c[nH]c2cc(Cl)c(OCc3cccc4ccccc34)cc12` displayed an IC50 in series [1] of 0.8 µM. The same compound showed an inhibition in series [2] of 81.5%.

As for `CNC(=O)c1cc(Oc2ccc(NC(=O)Nc3ccc(Cl)c(C(F)(F)F)c3)cc2)ccn1` [SORAFENIB], the inhibition in vivo at 100 mg/kg in series [3] worked out at 76%.

Take `COc1cc2[nH]cc(C(=O)CCl)c2cc1OCc1ccc2ccccc2c1`: the IC50 in series [1] came out at 2.4 µM. This compound registered an inhibition in series [2] of 93.9%.

The compound `O=C(CCl)c1c[nH]c2cc(Cl)c(OCc3ccccc3)cc12` registered a concentration for half-maximal inhibition (IC50) in series [1] of 2.7 µM. Besides, in series [2], the inhibition turned out to be 74.6%.

Consider `C=CC(=O)NCc1c[nH]c2cc(Cl)c(OCc3cccc4ccccc34)cc12`, for which, in series [1], half-maximal inhibition (IC50) was put at 14.4 µM. In series [2], this compound gave an inhibition of 10.6%.

Consider `O=C(CCl)c1c[nH]c2cc(Cl)c(OCc3ccc4ccccc4c3)cc12`, for which the values for the inhibition result in series [4], in series [5] and in series [2] were “Dose-Dependent Effect”, “Dose-Dependent Effect” and 95.6%, respectively. Moreover, the values for the IC50 in series [1] and in series [6] were 2.3 µM and 870 nM, respectively.

With `COc1cc2[nH]cc(C(=O)CCl)c2cc1OCc1cccc2ccccc12`, the IC50 in series [1] turned out to be 2.5 µM. In series [2], this compound registered an inhibition of 64.5%.

Consider `O=C(CCl)c1c[nH]c2cc(Cl)c(OCc3ccc(C(F)(F)F)c(F)c3)cc12`, for which inhibition in series [1] was half-maximal at 1.8 µM (IC50). This counts as single-digit micromolar.

Compound `N#C/C(=C\c1c[nH]c2cc(Cl)c(OCc3cccc(C(F)(F)F)c3)cc12)C(N)=O` returned an IC50 in series [1] of 5.2 µM. The compound also registered an inhibition in series [2] of 59.7%.

In series [1], `N#C/C(=C\c1c[nH]c2cc(Cl)c(OCc3ccc4ccccc4c3)cc12)C(N)=O` gave an IC50 of 4.1 µM. In series [2], this compound came in with an inhibition of 47.3%.

The compound `O=C(CCl)NCc1c[nH]c2cc(Cl)c(OCc3ccc4ccccc4c3)cc12` came in with a concentration for half-maximal inhibition (IC50) in series [1] of 5.7 µM. The inhibition in series [2] came to 67.4%.

For the compound `N#C/C(=C\c1c[nH]c2cc(Cl)c(OCc3ccccc3)cc12)C(N)=O`, the IC50 in series [1] was more than 50 µM.

Regarding `O=C(CCl)c1c[nH]c2cc(Cl)c(OCc3cccc4ccccc34)cc12`, the midpoint of inhibition in series [1], the IC50, lay at 1.6 µM. The compound further showed an inhibition in series [2] of 69.4%.

With `C=CC(=O)NCc1c[nH]c2cc(Cl)c(OCc3ccccc3)cc12`, in series [1], the IC50 is more than 50 µM.

For the compound `N#C/C(=C\c1c[nH]c2cc(Cl)c(OCc3ccc4ccccc4n3)cc12)C(N)=O`, in series [1], the IC50 turned out to be 68.7 µM.

On to `O=C(CCl)NCc1c[nH]c2cc(Cl)c(OCc3ccccc3)cc12`, for which the inhibition result in series [4] is “Dose-Dependent Effect”; in series [2], 97.8%; in series [7] it was “Dose-Dependent Effect”. This compound gave an IC50 in series [1] of 1.2 µM.

Turning to `Clc1cc2[nH]ccc2cc1OCc1ccccc1`, the inhibition at 72 h, 10 µM in series [8] turned out to be 20.3%. The IC50 in series [1] is 32.5 µM; in series [6], 5000 nM. Further, the inhibition in series [2] worked out at 68.3%.

Consider `O=C(CCl)NCc1c[nH]c2cc(Cl)c(OCc3cccc(C(F)(F)F)c3)cc12`, for which the IC50 in series [1] worked out at 8.3 µM. Besides, the inhibition in series [2] was determined as 47.9%.

Source of the values: ChEMBL document CHEMBL5614440, “Development of Novel Indole-Based Covalent Inhibitors of TEAD as Potential Antiliver Cancer Agents” (J Med Chem, 2024).
